Test results published in patent US20190167647A1, “PHARMACEUTICAL COMPOSITION FOR STROKE TREATMENT BASED ON AMPK INHIBITION” (INDUSTRY ACADEMY COOPERATION FOUNDATION OF SEJONG UNIVERSITY, priority 2016, published 2019).

Assays:
[1] = tested on: cultured cerebral cortex neurons of a mouse; experiment: H2O2-induced neurotoxicity, propidium iodide staining; type: cell-based; conditions: H2O2 100 μM 4.5 hours; 10 μM drug; excepted drugs = no significant inhibition
Experimental: More particularly, the neurotoxicity model for observation of neurotoxicity inhibitory effects includes excitotoxicity, oxidative damage, etc. which are classified as a cause mechanism of stroke. NMDA (N-methyl-D-aspartate) was used as the excitotoxicity model while the oxidative model used herein was a hydrogen peroxide (H2O2) toxicity model. First, using NMDA (50 μM) or H2O2 (100 μM), the cultured cerebral cortex neurons of a mouse were treated for 1.5 hours and 4.5 hours, respectively, resulting in induction of neurotoxicity. The neurons were further treated with the selected 12 drugs (10 μM) as well as the existing selected drug #28 (20 μM). Then, after staining the neurons with propidium iodide (PI), the stained cells were quantified to determine a degree of cell death.

mouse = conditions: administered to a mouse; cited from earlier work
[2] = Free zinc concentration by fluorescent dye (Newport green DCF, FluoZin-3); type: physicochemical; conditions: 20 μM; Newport green DCF or FluoZin-3
Experimental: Further, in conjunction with clioquinol (20 μM) or the drug #28 (20 μM), a zinc fluorescent dye, i.e., Newport green DCF (0.5 μM, Kd(Zn)=1 uM) or FluoZin-3 (0.5 μM, Kd(Zn)=15 nM) was used for measurement of free zinc concentration.

mouse cortical cultures [3] = experiment: TPEN-induced caspase-3 activity; type: cell-based
Text: (§1) Generally, application of TPEN as a zinc chelator easily flowing into the cells causes a cell death in the form of typical apoptosis (EDTA is not introduced into the cells). When adding zinc to the above treatment, intracellular free zinc ions are retained thus to reduce neuronal death and further reduce caspase-3 protease activity in the apoptosis process. Under expectation such that: the drug #28 and clioquinol may not only serve as a chelator but also play a role of an ion permeable carrier; these drugs flow into cells as combined with zinc; thereafter, the zinc is removed from the drug because a concentration of free zinc in the cytoplasm is too low; therefore, the concentration of free zinc in the cytoplasm is increased thus to reduce neurotoxicity due to TPEN, caspase-3 activity and neurotoxicity (LDH secretion) were under observation after treatment using zinc, the drug #28 and clioquinol.

mouse cortical cultures [4] = experiment: TPEN-induced neurotoxicity (LDH secretion); type: cell-based
Text: as §1

[5] = tested on: cultured cerebral cortex neurons of a mouse; experiment: Zinc ion permeable carrier test, ZinPyr-1; type: cell-based; conditions: #28 0.05 μM, clioquinol 0.5 μM
Experimental: ZinPyr-1 is a fluorescent dye which has a lower Kd value than that of FluoZin-3 and is used to measure a change in a zinc concentration even at a lower concentration. Whether the drug #28 of the present invention can act as an ion permeable carrier was under observation using ZinPyr-1. More particularly, the cultured cerebral cortex neurons of a mouse were treated with ZinPyr-1 then treated with the drug #28 (0.05 μM) and clioquinol (0.5 μM) in a typically used neuronal cell culture medium, so as to determine a change in zinc ion concentrations in the neurons. Also, a non-treatment group was used as a control group.
Therefore, after adding a further 0.5 μM concentration of zinc to the cell culture medium, a change in zinc concentration in the cells was under observation.

[6] = target: T1, recombinant AMPK (α2/β1/γ1) (Homo sapiens, UniProt P54646); experiment: AMPK enzymatic activity assay (CycLex kit); type: biochemical; conditions: 10 μM
T1 construct: purchased CycLex, Japan
Experimental: More particularly, AMPK enzymatic activity was measured by an AMPK activity assay kit (CycLex, Japan) and recombinant AMPK (α2/β1/γ1 CycLex, Japan).

[7] = tested on: cultured cerebral cortex neurons; experiment: Zinc neurotoxicity, TUNEL staining and LDH assay; type: cell-based, mouse; conditions: 300 μM ZnCl2 10 min, 10 hours later; 20 μM compound
Experimental: Cerebral cortex neurons of a mouse used in the present invention were extracted from the mouse embryos brain and cultured, followed by further culturing the same using a Dulbecco's modified Eagle's medium (DMEM, Gibco, Grand Island, N.Y., US) containing 5% fetal bovine serum (FBS) and 5% horse serum (HS) under conditions of 95% humidity, 5% CO2 and 37° C. temperature. For activation and differentiation of the above cells, these cells were proliferated at a density of 2×10^4 cells in 24-well tissue culture plate. Further, prior to treatment using zinc and the compounds, the cells were incubated in MEM medium without FBS and HS.
More particularly, the cultured cerebral cortex neurons according to the embodiment of the present invention were treated with 300 μM zinc (ZnCl2) for 10 minutes then removed. 10 hours later, cytotoxicity was observed by TUNEL staining or LDH (Lactate Dehydrogenase). Further, these cells were treated with AMPK inhibitor, that is, 20 μM compound C (+Cpd C, Tocris), followed by observation whether neurotoxicity is reduced or not.

cerebral cortex neurons = experiment: Western blot of Bim and caspase-3 after zinc treatment; type: cell-based, mouse; conditions: 300 μM ZnCl2, 20 μM compound
Experimental: More particularly, the cerebral cortex neurons were treated with 300 μM zinc (ZnCl2) for 2, 3, 4, 5 and 6 hours to induce zinc toxicity. From each sample, protein was separated and subjected to Western blot and treatment using 20 μM compound C (+Cpd C) as an AMPK inhibitor, so as to identify a relationship between the zinc toxicity and apoptosis.

neuronal cells = experiment: H2O2 neurotoxicity with chelators (LDH secretion); type: cell-based
Experimental: There is reported that intracellular free zinc is increased in a neurotoxicity mechanism due to hydrogen peroxide, wherein hydrogen peroxide toxicity is reduced when the cells are treated using the zinc chelator. […] Therefore, in order to monitor whether effects of the drug #28 are associated with a reduction of zinc in the above case, the neuronal cells were treated with hydrogen peroxide (H2O2), a zinc chelator such as TPEN or CaEDTA and a calcium chelator such as ZnEDTA, followed by monitoring neurotoxicity (LDH secretion).

[8] = Calcium chelation with Fura-2 dye (test tube); type: physicochemical; conditions: Fura-2 dye, test tube
Experimental: In order to determine whether the above result is obtained by the chelation of Ca^2+ ions other than the drug #28, protective effects of the drug #28 (10 to 60 μM) after treatment using ionomycin, which is a calcium ion permeable carrier (‘calcium ionophore’) directly increasing the intracellular calcium concentration, were under observation. Further, using a Fura-2 dye that is combined with calcium to represent fluorescence, it was monitored whether the drug #28 is combined with calcium on a test tube and represents chelating effects.

T1 sequence (P54646 whole entry): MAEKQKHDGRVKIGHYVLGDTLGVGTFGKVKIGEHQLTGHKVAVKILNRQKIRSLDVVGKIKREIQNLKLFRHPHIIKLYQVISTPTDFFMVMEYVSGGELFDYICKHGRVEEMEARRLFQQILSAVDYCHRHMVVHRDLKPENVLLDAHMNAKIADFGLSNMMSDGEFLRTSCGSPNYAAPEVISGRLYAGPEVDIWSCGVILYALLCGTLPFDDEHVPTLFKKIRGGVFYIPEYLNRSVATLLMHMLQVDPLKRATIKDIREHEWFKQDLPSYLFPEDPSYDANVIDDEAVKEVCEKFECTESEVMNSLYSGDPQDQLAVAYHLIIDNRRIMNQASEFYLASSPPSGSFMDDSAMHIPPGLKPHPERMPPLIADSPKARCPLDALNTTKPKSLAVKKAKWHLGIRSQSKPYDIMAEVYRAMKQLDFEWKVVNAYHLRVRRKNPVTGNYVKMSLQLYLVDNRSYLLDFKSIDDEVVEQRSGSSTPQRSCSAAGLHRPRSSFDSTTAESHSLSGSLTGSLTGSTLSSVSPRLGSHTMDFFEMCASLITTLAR
T1 sequence (Q9Y478 whole entry partner): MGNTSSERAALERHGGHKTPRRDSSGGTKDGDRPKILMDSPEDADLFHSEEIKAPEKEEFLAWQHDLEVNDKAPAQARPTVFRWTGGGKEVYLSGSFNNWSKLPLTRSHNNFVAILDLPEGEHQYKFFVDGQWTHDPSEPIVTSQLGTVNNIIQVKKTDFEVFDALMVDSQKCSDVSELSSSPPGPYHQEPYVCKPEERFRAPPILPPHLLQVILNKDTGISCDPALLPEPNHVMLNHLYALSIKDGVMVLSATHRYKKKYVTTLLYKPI
T1 sequence (P54619 whole entry partner): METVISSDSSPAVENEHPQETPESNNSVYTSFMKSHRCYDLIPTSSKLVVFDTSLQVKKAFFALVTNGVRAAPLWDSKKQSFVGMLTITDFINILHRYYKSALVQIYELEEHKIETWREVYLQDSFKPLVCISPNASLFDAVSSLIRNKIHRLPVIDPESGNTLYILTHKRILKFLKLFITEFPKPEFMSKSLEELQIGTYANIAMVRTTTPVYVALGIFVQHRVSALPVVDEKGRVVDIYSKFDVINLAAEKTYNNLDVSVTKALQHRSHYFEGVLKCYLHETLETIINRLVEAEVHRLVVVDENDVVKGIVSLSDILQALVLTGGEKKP

In the case of `Cc1cccc(NC2=NC(=O)/C(=C/c3c[nH]c4ccccc34)S2)c1C` [Compound 4B04, (5Z)-2-[(2,3-Dimethylphenyl)amino]-5-(1H-indol-3-ylmethylene)-1,3-thiazol-4(5H)-one], the “inhibition of H2O2-induced neurotoxicity” value [1] is reported as “other than two drugs”.
In the case of `C=C1C(=O)OC(CCCCCCCC)C1C(=O)O` (stereo not drawn) [Compound C75], the “size of infarcted part” value (mouse) is listed as “significantly reduces a size of an infracted part”.
For `Oc1c(I)cc(Cl)c2cccnc12` [clioquinol, reference compound], the free zinc ions [2] was “reduce free zinc ions”, the “caspase-3 activity induced by TPEN” value (mouse cortical cultures [3]) was “significantly reduce caspase-3 activity induced by TPEN” and the “neurotoxicity by TPEN” value (mouse cortical cultures [4]) was “decrease neurotoxicity by TPEN”. For the same compound, the “increase of zinc in neurons, general culture conditions” value [5] was “an increase of zinc by clioquinol was observed”.
For `c1cc(-c2cnn3cc(-c4ccc(OCCN5CCCCC5)cc4)cnc23)ccn1` [Compound C], the “Mean (% remaining activity)” value [6] was 5.3000%, the “zinc neurotoxicity (TUNEL staining and LDH assay)” value [7] was “significantly reduced” and the “increase in Bim caused by zinc toxicity” value (cerebral cortex neurons) was “reduce”. For the same compound, the “increase in caspase-3 activity caused by zinc toxicity” value (cerebral cortex neurons) was “reduce” and the “size of infarcted part” value (mouse) was “significantly reduces a size of an infracted part”.
With `O=C([O-])CN(CCN(CC(=O)[O-])CC(=O)[O-])CC(=O)[O-].[Ca+2].[Na+].[Na+]` [CaEDTA] the “neurotoxicity caused by hydrogen peroxide” value (shortened to “neurotoxicity caused”) (neuronal cells) was “significantly reduced toxicity”.
For `Cc1ccccc1NC1=NC(=O)/C(=C/c2c[nH]c3ccccc23)S1` [Compound 4B03, (5Z)-5-(1H-Indol-3-ylmethylene)-2-[(2-methylphenyl)amino]-1,3-thiazol-4(5H)-one], the “inhibition of H2O2-induced neurotoxicity” value [1] was “other than two drugs”.
For `[Cl-].[Cl-].[Zn+2]` [zinc], the “caspase-3 activity induced by TPEN” value (mouse cortical cultures [3]) was “significantly reduce caspase-3 activity induced by TPEN” and the “neurotoxicity by TPEN” value (mouse cortical cultures [4]) was “decrease neurotoxicity by TPEN”.
With `O=C(O)CN(CCN(CC(=O)O)CC(=O)O)CC(=O)O` [EDTA, reference compound] the “chelating effects for calcium” value [8] was “good chelating effects at a low calcium concentration”.
In the case of `O=C([O-])CN(CCN(CC(=O)O)CC(=O)O)CC(=O)[O-].[Zn+2]` [ZnEDTA], the “neurotoxicity caused” value (neuronal cells) is reported as “did not inhibit toxicity”.
With `c1ccc(CN(CCN(Cc2ccccn2)Cc2ccccn2)Cc2ccccn2)nc1` [TPEN, N,N,N′,N′-tetrakis (2-pyridylmethyl) ethylenediamine] the “neurotoxicity caused” value (neuronal cells) was “reduced neurotoxicity caused by hydrogen peroxide”.
